Read-outs that look alike come from different tables or passages of the source.
Assays:
[1] = Solubilities of biocidal active substances in different solvents at 25° C.; assay type: physicochemical
[2] = Storage stability (appearance of solution) in different solvents at −5° C., +20° C. and +50° C., 14 days' storage; assay type: physicochemical
[3] = cited from earlier work
[4] = in Polyethylene glycol 300, 25° C.
[5] = in Polyethylene glycol 400/glycerol 3:1, 25° C.
[6] = in TEGDME (tetraethylene glycol dimethyl ether), 25° C.
[7] = in Butyl polyglycol, 14 days' storage
[8] = in Diethylene glycol, 14 days' storage
[9] = in Dimethyl sulfoxide, 14 days' storage
[10] = in N-Methylpyrrolidone, 14 days' storage
[11] = in Polyethylene glycol 300, 14 days' storage
[12] = in dimethyl sulfoxide or N-methylpyrrolidone

O=c1[nH]sc2ccccc12 [1,2-Benzisothiazolin-3-one, 1,2-benzisothiazolin-3-one]
Solubility [25° C.] ([1]; in 2-Ethylhexanol, 25° C.): insoluble
Solubility [25° C.] ([1]; in Butyl diglycol, 25° C.): 7%
Solubility [25° C.] ([1]; in Butyl polyglycol, 25° C.): 10%
Solubility [25° C.] ([1]; in Diethylene glycol, 25° C.): 7%
Solubility [25° C.] ([1]; in Dimethyl sulfoxide, 25° C.): 30%
Solubility [25° C.] ([1]; in Dipropylene glycol, 25° C.): 5%
Solubility [25° C.] ([1]; in Glycerol, 25° C.): insoluble
Solubility [25° C.] ([1]; in N-Methylpyrrolidone, 25° C.): 7%
Solubility [25° C.] [1, 4]: 8%
Solubility [25° C.] [1, 5]: 7%
Solubility [25° C.] ([1]; in Polyglycol D 21/150, 25° C.): 4%
Solubility [25° C.] ([1]; in Polyglycol M 350, 25° C.): 9%
Solubility [25° C.] [1, 6]: 8%
Storage stability at +20° C. [2, 7]: clear solution
Storage stability at +50° C. [2, 7]: clear solution
Storage stability at −5° C. [2, 7]: clear solution
Storage stability at +20° C. [2, 8]: clear solution
Storage stability at +50° C. [2, 8]: clear solution
Storage stability at −5° C. [2, 8]: clear solution
Storage stability at +20° C. [2, 9]: clear solution
Storage stability at +50° C. [2, 9]: clear solution
Storage stability at −5° C. [2, 9]: clear solution
Storage stability at +20° C. [2, 10]: clear solution
Storage stability at +50° C. [2, 10]: clear solution
Storage stability at −5° C. [2, 10]: clear solution
Storage stability at +20° C. [2, 11]: clear solution
Storage stability at +50° C. [2, 11]: clear solution
Storage stability at −5° C. [2, 11]: clear solution
Active substance content at which solutions are stable ([3]; propylene glycol/water or diethylene glycol/water mixture, U.S. Pat. No. 4,188,376, higher concentrated solutions liable to precipitation): below 5 % by weight
Solubility in water ([3]; water): sparingly soluble

N#CCCC(Br)(C#N)CBr (stereo not shown) [1,2-Dibromo-2,4-dicyanobutane, 1,2-dibromo-2,4-dicyanobutane]
Solubility [25° C.] ([1]; in 2-Ethylhexanol, 25° C.): insoluble
Solubility [25° C.] ([1]; in Butyl diglycol, 25° C.): 30%
Solubility [25° C.] ([1]; in Butyl polyglycol, 25° C.): 40%
Solubility [25° C.] ([1]; in Diethylene glycol, 25° C.): 20%
Solubility [25° C.] ([1]; in Dimethyl sulfoxide, 25° C.): 45%
Solubility [25° C.] ([1]; in Dipropylene glycol, 25° C.): 10%
Solubility [25° C.] ([1]; in Glycerol, 25° C.): insoluble
Solubility [25° C.] ([1]; in N-Methylpyrrolidone, 25° C.): 40%
Solubility [25° C.] [1, 4]: 35%
Solubility [25° C.] [1, 5]: 20%
Solubility [25° C.] ([1]; in Polyglycol D 21/150, 25° C.): 15%
Solubility [25° C.] ([1]; in Polyglycol M 350, 25° C.): 45%
Solubility [25° C.] [1, 6]: 45%
Storage stability at +20° C. [2, 7]: clear, yellowish
Storage stability at +50° C. [2, 7]: clear, yellowish
Storage stability at −5° C. [2, 7]: clear, colorless
Storage stability at +20° C. [2, 8]: clear, colorless
Storage stability at +50° C. [2, 8]: clear, colorless
Storage stability at −5° C. [2, 8]: clear, colorless
Storage stability at +20° C. [2, 9]: brown solution
Storage stability at +50° C. [2, 9]: black solution
Storage stability at −5° C. [2, 9]: clear, yellowish
Storage stability at +20° C. [2, 10]: brown solution
Storage stability at +50° C. [2, 10]: black solution
Storage stability at −5° C. [2, 10]: clear, yellowish
Storage stability at +20° C. [2, 11]: clear, yellowish
Storage stability at +50° C. [2, 11]: clear, yellowish
Storage stability at −5° C. [2, 11]: clear, colorless
Chemical stability [3, 12]: chemically unstable
Solubility [3, 12]: readily soluble
Solubility ([3]; in solvents such as glycerol or 2-ethylhexanol): sparingly soluble

From US20090105320A1, “Biodal Compositions Containing 1,2-Benzisothiazolin-3-One And 1,2-Dibromo-2,4-Dicyanobutane” (priority 2006, published 2009)
